Test results published in US9963445B2, “Chemical compounds” (SYNGENTA PARTICIPATIONS AG, priority 2013, dated 2018).

Columns and labels:
Format in all cases: in vivo
[1] = system: Abutilon theophrasti; assay: Pre-emergence herbicidal activity, glasshouse pot test; conditions: pre-emergence spray, rate 1000 g/ha, evaluated after 13 days, scale 0-5
Procedure, shortened: (§1)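 Seeds sown in standard soil were sprayed one day after sowing, before emergence, with compound formulated in acetone/water (50:50) plus 0.5% Tween 20. Plants were grown at 24/16 °C day/night, 14 h light, 65% humidity, watered twice daily, and damage was scored after 13 days (0 = none, 5 = total).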

[2] = system: Alopecurus myosuroides; assay: as above; conditions: pre-emergence spray, rate 1000 g/ha, evaluated after 13 days, scale 0-5
Procedure, shortened: as §1

[3] = system: Amaranthus retroflexus; assay: as above; conditions: pre-emergence spray, rate 1000 g/ha, evaluated after 13 days, scale 0-5
Procedure, shortened: as §1

[4] = system: Echinochloa crus-galli; assay: as above; conditions: pre-emergence spray, rate 1000 g/ha, evaluated after 13 days, scale 0-5
Procedure, shortened: as §1

[5] = system: Setaria faberi; assay: as above; conditions: pre-emergence spray, rate 1000 g/ha, evaluated after 13 days, scale 0-5
Procedure, shortened: as §1

[6] = system: zea mays; assay: as above; conditions: pre-emergence spray, rate 1000 g/ha, evaluated after 13 days, scale 0-5
Procedure, shortened: as §1

[7] = system: Abutilon theophrasti; assay: Post-emergence herbicidal activity, glasshouse pot test; design: key: 0 = no damage to plant, 5 = total damage to plant; conditions: Application post-emergence, rate 1000 g/ha, evaluated after 13 days
Procedure, shortened: (§2)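 Damage rated 0 (none) to 5 (total) 13 days after spraying. Plants were treated post-emergence at 8 days after sowing, using an acetone/water (50:50) formulation with 0.5% Tween 20 diluted to an aqueous spray.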

[8] = system: Alopecurus myosuroides; assay: as above; design: key: 0 = no damage to plant, 5 = total damage to plant; conditions: Application post-emergence, rate 1000 g/ha, evaluated after 13 days
Procedure, shortened: as §2

[9] = system: Amaranthus retroflexus; assay: as above; design: key: 0 = no damage to plant, 5 = total damage to plant; conditions: Application post-emergence, rate 1000 g/ha, evaluated after 13 days
Procedure, shortened: as §2

[10] = system: Echinochloa crus-galli; assay: as above; design: key: 0 = no damage to plant, 5 = total damage to plant; conditions: Application post-emergence, rate 1000 g/ha, evaluated after 13 days
Procedure, shortened: as §2

[11] = system: Setaria faberi; assay: as above; design: key: 0 = no damage to plant, 5 = total damage to plant; conditions: Application post-emergence, rate 1000 g/ha, evaluated after 13 days
Procedure, shortened: as §2

[12] = system: zea mays; assay: as above; design: key: 0 = no damage to plant, 5 = total damage to plant; conditions: Application post-emergence, rate 1000 g/ha, evaluated after 13 days
Procedure, shortened: as §2

SMILES | ABUTH damage score, application pre-emergence [1] | ALOMY damage score, application pre-emergence [2] | AMARE damage score, application pre-emergence [3] | ECHCG damage score, application pre-emergence [4] | SETFA damage score, application pre-emergence [5] | ZEAMX damage score, application pre-emergence [6] | ABUTH herbicidal damage score [7] | ALOMY herbicidal damage score [8] | AMARE herbicidal damage score [9] | ECHCG herbicidal damage score [10] | SETFA herbicidal damage score [11] | ZEAMX herbicidal damage score [12]
COC1=C(C)C(O)N(c2cc(C(C)(C)F)c(C)nn2)C1=O (stereo not drawn) [BI16] | 5 | 3 | 5 | 4 | 5 | 3 | 5 | 4 | 5 | 5 | 5 | 4
COC1=C(C)C(O)N(c2cc(C(C)(F)F)c(-c3ccc(F)cc3)nn2)C1=O (stereo not drawn) [BI17] | 4 | 4 | 4 | 3 | 4 | 2 | 5 | 4 | 5 | 5 | 5 | 3
CC#Cc1nnc(N2C(=O)C(OC)=C(C)C2O)cc1C(C)(F)F (stereo not drawn) [BI18] | 4 | 3 | 4 | 3 | 3 | 1 | 5 | 3 | 5 | 5 | 4 | 2
C=C(OCC)c1nnc(N2C(=O)C(OC)=C(C)C2O)cc1C(C)(F)F (stereo not drawn) [BI19] | 5 | 3 | 5 | 5 | 3 | 2 | 5 | 4 | 5 | 5 | 4 | 3
COC1=C(C)C(O)N(c2cc(C(C)(F)F)c(-c3ccc(C)c(F)c3)nn2)C1=O (stereo not drawn) [BI20] | 0 | 2 | 3 | 1 | 1 | 1 | 5 | 2 | 5 | 3 | 4 | 1
COC1=C(C)C(O)N(c2cc(C(C)(F)F)c(-c3cccnc3)nn2)C1=O (stereo not drawn) [BI21] | 2 | 2 | 2 | 2 | 3 | 0 | 3 | 4 | 5 | 4 | 4 | 1
COC1=C(C)C(O)N(c2cc(C(C)(F)F)c(Cl)nn2)C1=O (stereo not drawn) [BI22] | 4 | 4 | 5 | 5 | 4 | 3 | 5 | 5 | 5 | 5 | 5 | 3
COC1=C(C)C(O)N(c2cc(C(C)(F)F)c(C#N)nn2)C1=O (stereo not drawn) [BI23] | 4 | 4 | 5 | 4 | 2 | 1 | 4 | 4 | 3 | 4 | 4 | 1
COC1=C(C)C(O)N(c2cc(C(C)(F)F)c(C)nn2)C1=O (stereo not drawn) [BI24] | 5 | 4 | 5 | 4 | 4 | 3 | 5 | 4 | 5 | 5 | 5 | 3
C#CC(C)(C)NC(=O)c1ccc(N2C(=O)C(OC)=C(C)C2O)nn1 (stereo not drawn) [BI27] | 4 | 2 | 5 | 4 | 4 | 1 | 5 | 4 | 5 | 5 | 5 | 4
COC1=C(C)C(O)N(c2cc(C)c(Cl)nn2)C1=O (stereo not drawn) [BI29] | 0 | 3 | 3 | 3 | 2 | 1 | 1 | 2 | 5 | 3 | 4 | 0
COC1=C(C)C(O)N(c2cc(C(C)(C)C)c(-c3ccc(F)nc3)nn2)C1=O (stereo not drawn) [BI30] | 5 | 4 | 5 | 5 | 5 | 4 | 5 | 5 | 5 | 5 | 5 | 4
COC1=C(C)C(O)N(c2cc(C(C)(C)C)c(N3CC(F)(F)C3)nn2)C1=O (stereo not drawn) [BI31] | 5 | 4 | 5 | 4 | 5 | 3 | 5 | 5 | 5 | 5 | 5 | 4
COC1=C(C)C(O)N(c2cc(C)c(-c3cnn(C)c3)nn2)C1=O (stereo not drawn) [BI33] | 0 | 0 | 0 | 0 | 0 | 0 | 0 | 2 | 4 | 2 | 2 | 1
COC1=C(OC)C(O)N(c2cc(C)c(OC)nn2)C1=O (stereo not drawn) [BK1] | 4 | 4 | 5 | 4 | 4 | 2 | 5 | 4 | 5 | 5 | 5 | 3
COC1=C(OC)C(O)N(c2ccc(C(F)(F)F)nn2)C1=O (stereo not drawn) [BK2] | 0 | 0 | 0 | 0 | 0 | 0 | 1 | 1 | 1 | 1 | 1 | 0
